{"source": "patent US12331224B2", "about": "“Two-part epoxy compositions for adherent coatings of storage articles” (SWIMC LLC, priority 2019, dated 2025)", "key": {"[1]": {"test_system": "MCF-7, clone WS8, cells", "assay": "MCF-7 cell proliferation assay of estrogenic agonist activity", "assay_type": "cell-based, human", "details": "logarithmic (base 10) Relative Proliferative Effect in MCF-7 assay; expected or measured values", "description": "As used herein, the terms “estrogenic agonist activity” or “estrogenic activity” refer to the ability of a compound to mimic hormone-like activity through interaction with an endogenous estrogen receptor, typically an endogenous human estrogen receptor. […] The MCF-7 assay uses MCF-7, clone WS8, cells to measure whether and to what extent a substance induces cell proliferation via estrogen receptor (ER)-mediated pathways. The method is described in “Test Method Nomination: MCF-7 Cell Proliferation Assay of Estrogenic agonist activity” submitted for validation by CertiChem, Inc. to the National Toxicology Program Interagency Center for the Evaluation of Alternative Toxicological Methods (NICEA™) on Jan. 19, 2006 (available online at http://iccvam.niehs.nih.gov/methods/endocrine/endodocs/SubmDoc.pdf). As a brief summary of the assay, MCF-7, clone WS8, cells are maintained at 37° C. in RMPI (or Roswell Park Memorial Institute medium) containing Phenol Red (e.g., GIBCO Catalog Number 11875119) and supplemented with the indicated additives for routine culture. An aliquot of cells maintained at 37° C. are grown for 2 days in phenol-free media containing 5% charcoal stripped fetal bovine serum in a 25 cm^2 tissue culture flask. Using a robotic dispenser such as an epMotion 5070 unit, MCF-7 cells are then seeded at 400 cells per well in 0.2 ml of hormone-free culture medium in Corning 96-well plates. The cells are adapted for 3 days in the hormone-free culture medium prior to adding the chemical to be assayed for estrogenic agonist activity. The media containing the test chemical is replaced daily for 6 days. At the end of the 7-day exposure to the test chemical, the media is removed, the wells are washed once with 0.2 ml of HBSS (Hanks' Balanced Salt Solution), and then assayed to quantify amounts of DNA per well using a micro-plate modification of the Burton diphenylamine (DPA) assay, which is used to calculate the level of cell proliferation.\nRPE is the ratio between the EC50 of the test chemical and the EC50 of the control substance 17-beta estradiol times 100, where EC50 is “effective concentration 50%” or half-maximum stimulation concentration for cell proliferation measured as total DNA in the MCF-7 assay.\nTables 1 and 2 provided below include some compounds and their expected or measured logarithmic RPE values in the MCF-7 assay."}, "[2]": {"biological_target": "T1, estrogen receptor (Homo sapiens, UniProt P03372)", "T1 sequence (P03372 1-595)": "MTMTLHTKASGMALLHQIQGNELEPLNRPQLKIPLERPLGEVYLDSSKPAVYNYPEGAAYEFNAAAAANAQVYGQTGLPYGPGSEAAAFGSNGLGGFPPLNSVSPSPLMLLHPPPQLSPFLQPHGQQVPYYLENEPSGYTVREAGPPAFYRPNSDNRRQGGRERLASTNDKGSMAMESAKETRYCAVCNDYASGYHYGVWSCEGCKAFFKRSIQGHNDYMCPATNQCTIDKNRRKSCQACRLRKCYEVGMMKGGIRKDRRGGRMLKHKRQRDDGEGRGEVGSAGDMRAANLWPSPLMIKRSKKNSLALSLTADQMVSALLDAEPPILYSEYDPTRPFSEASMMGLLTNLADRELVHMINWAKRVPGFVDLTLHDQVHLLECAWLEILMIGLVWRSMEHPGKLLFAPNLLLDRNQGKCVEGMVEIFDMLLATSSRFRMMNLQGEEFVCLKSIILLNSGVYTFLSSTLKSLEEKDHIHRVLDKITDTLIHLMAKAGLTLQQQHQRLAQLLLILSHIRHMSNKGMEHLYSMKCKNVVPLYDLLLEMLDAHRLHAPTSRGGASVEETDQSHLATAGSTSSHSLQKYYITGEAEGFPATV", "assay": "suitable in vitro assay of estrogenic agonist activity correlated to the MCF-7 assay", "details": "suitable in vitro assay correlated to MCF-7 assay", "description": "While not intending to be bound by any theory, it is believed that the positioning of one or more R^1 groups at an ortho position relative to the oxygen atom depicted in Formulas (I) and (IA) may be particularly beneficial in reducing or eliminating estrogenic agonist activity."}, "[3]": {"assay": "Gel-time comparison of two-part epoxy compositions with curing agents", "assay_type": "physicochemical", "details": "for Gel time: 1:1 stoichiometric mix, 100 g; for Difference in gel time: TMBPFDGE minus BADGE; for Gel-Time % increase: from BADGE to TMBPFDGE", "experimental": "Two-part epoxy compositions of bisphenol A diglycidyl ether (BADGE) (e.g., molecular weight of approximately 340 g/mol) and tetramethyl bisphenol F diglycidyl ether (TMBPFDGE) were prepared and mixed with various amine-based curing agents to compare the respective gel times of the compositions. The BADGE and TMBPFDGE monomer epoxides (e.g., molecular weight of approximately 340.4 g/mol and 368.6 g/mol respectively) were reduced to approximately 90% weight solids with xylene solvent. Gel times were measured using 100 g mass samples with a Paul N. Gardner Co, Inc. gel time recorder model S-5154. The gel-time values reported are in minutes, along with the difference between BADGE and TMBPFDGE compositions using the same curing agent, and the percent increase in gel time from BADGE to TMBPFDGE."}, "[4]": {"details": "curing agent ANACAMIDE 375A (polyamide)"}, "[5]": {"details": "curing agent ANACAMINE 503 (amidoamine)"}, "[6]": {"details": "curing agent ANACAMINE 2393 (cycloaliphatic amine)"}, "[7]": {"details": "curing agent CARDOLITE 3040 (phenalkamide)"}, "[8]": {"details": "curing agent CARDOLITE NC541 (phenalkamine)"}, "[9]": {"details": "curing agent GABEPRO GPM-830CB (mercaptan)"}, "[10]": {"details": "curing agent TETA, epoxy 90% solids in xylene"}}, "data": [{"smiles": "Cc1cc(Cc2cc(C)cc(C3(C)CCCCC3)c2O)c(O)c(C2(C)CCCCC2)c1", "note": "[2,2′-Methylenebis(6-(1-methylcyclohexyl)-4-methylphenol]", "values": [{"measurement": "Log RPE", "setting": "[1]", "result": "less than −4"}]}, {"smiles": "Cc1cc(Cc2cc(C)cc(C(C)(C)C)c2O)c(O)c(C(C)(C)C)c1", "note": "[2,2′-methylenebis(4-methyl-6-t-butylphenol)]", "values": [{"measurement": "estrogenic agonist activity", "setting": "[2]", "result": "do not exhibit appreciable estrogenic agonist activity"}]}, {"smiles": "CC(C)(C)c1cc(O)c(C(C)(C)C)cc1O", "note": "[2,5-di-t-butylhydroquinone]", "values": [{"measurement": "estrogenic agonist activity", "setting": "[2]", "result": "do not exhibit appreciable estrogenic agonist activity"}]}, {"smiles": "CCCC(c1cc(C(C)(C)C)c(O)cc1C)c1cc(C(C)(C)C)c(O)cc1C", "note": "[4,4′-butylidenebis(2-t-butyl-5-methylphenol)]", "values": [{"measurement": "estrogenic agonist activity", "setting": "[2]", "result": "do not exhibit appreciable estrogenic agonist activity"}]}, {"smiles": "CC(C)(C)c1cc(Cc2cc(C(C)(C)C)c(O)c(C(C)(C)C)c2)cc(C(C)(C)C)c1O", "note": "[4,4′-methylenebis(2,6-di-t-butylphenol)]", "values": [{"measurement": "estrogenic agonist activity", "setting": "[2]", "result": "do not exhibit appreciable estrogenic agonist activity"}]}, {"smiles": "Cc1cc(Cc2cc(C)c(O)c(C)c2)cc(C)c1O", "note": "[4,4′-methylenebis(2,6-dimethylphenol)]", "values": [{"measurement": "estrogenic agonist activity", "setting": "[2]", "result": "do not exhibit appreciable estrogenic agonist activity"}]}, {"smiles": "C[C@]12CC[C@@H]3c4ccc(O)cc4CC[C@H]3[C@@H]1CC[C@@H]2O", "note": "[17β-estradiol]", "values": [{"measurement": "Log RPE", "setting": "[1]", "result": 2.00}]}, {"smiles": "CC(C)(c1ccc(OCC2CO2)cc1)c1ccc(OCC2CO2)cc1", "note": "(centres unmarked) [BADGE, bisphenol A diglycidyl ether, reference compound]", "values": [{"measurement": "Gel time", "setting": "[3]; [4]", "result": 312, "unit": "min"}, {"measurement": "Gel time", "setting": "[3]; [5]", "result": 211, "unit": "min"}, {"measurement": "Gel time", "setting": "[3]; [6]", "result": 55, "unit": "min"}, {"measurement": "Gel time", "setting": "[3]; [7]", "result": 198, "unit": "min"}, {"measurement": "Gel time", "setting": "[3]; [8]", "result": 86, "unit": "min"}, {"measurement": "Gel time", "setting": "[3]; [9]", "result": 16, "unit": "min"}, {"measurement": "Gel time", "setting": "[3]; curing agent PACM", "result": 275, "unit": "min"}, {"measurement": "Gel time", "setting": "[3]; [10]", "result": 74, "unit": "min"}]}, {"smiles": "Oc1ccc(Cc2ccc(O)cc2)cc1", "note": "[Bisphenol F]", "values": [{"measurement": "Log RPE", "setting": "[1]", "result": "−2"}]}, {"smiles": "O=S(=O)(c1ccc(O)cc1)c1ccc(O)cc1", "note": "[Bisphenol S]", "values": [{"measurement": "Log RPE", "setting": "[1]", "result": "−2"}]}, {"smiles": "Cc1cc(Cc2cc(C)c(OCC3CO3)c(C)c2)cc(C)c1OCC1CO1", "note": "(centres unmarked) [TMBPFDGE, tetramethyl bisphenol F diglycidyl ether]", "values": [{"measurement": "Difference in gel time", "setting": "[3]; [4]", "result": 454, "unit": "min"}, {"measurement": "Difference in gel time", "setting": "[3]; [5]", "result": 469, "unit": "min"}, {"measurement": "Difference in gel time", "setting": "[3]; [6]", "result": 343, "unit": "min"}, {"measurement": "Difference in gel time", "setting": "[3]; [7]", "result": 370, "unit": "min"}, {"measurement": "Difference in gel time", "setting": "[3]; [8]", "result": 206, "unit": "min"}, {"measurement": "Difference in gel time", "setting": "[3]; [9]", "result": 82, "unit": "min"}, {"measurement": "Difference in gel time", "setting": "[3]; curing agent PACM", "result": 510, "unit": "min"}, {"measurement": "Difference in gel time", "setting": "[3]; curing agent TETA", "result": 333, "unit": "min"}, {"measurement": "Gel time", "setting": "[3]; [4]", "result": 766, "unit": "min"}, {"measurement": "Gel time", "setting": "[3]; [5]", "result": 680, "unit": "min"}, {"measurement": "Gel time", "setting": "[3]; [6]", "result": 398, "unit": "min"}, {"measurement": "Gel time", "setting": "[3]; [7]", "result": 568, "unit": "min"}, {"measurement": "Gel time", "setting": "[3]; [8]", "result": 292, "unit": "min"}, {"measurement": "Gel time", "setting": "[3]; [9]", "result": 98, "unit": "min"}, {"measurement": "Gel time", "setting": "[3]; curing agent PACM", "result": 785, "unit": "min"}, {"measurement": "Gel time", "setting": "[3]; [10]", "result": 407, "unit": "min"}, {"measurement": "Gel-Time % increase", "setting": "[3]; [4]", "result": 146, "unit": "%"}, {"measurement": "Gel-Time % increase", "setting": "[3]; [5]", "result": 222, "unit": "%"}, {"measurement": "Gel-Time % increase", "setting": "[3]; [6]", "result": 624, "unit": "%"}, {"measurement": "Gel-Time % increase", "setting": "[3]; [7]", "result": 187, "unit": "%"}, {"measurement": "Gel-Time % increase", "setting": "[3]; [8]", "result": 240, "unit": "%"}, {"measurement": "Gel-Time % increase", "setting": "[3]; [9]", "result": 513, "unit": "%"}, {"measurement": "Gel-Time % increase", "setting": "[3]; curing agent PACM", "result": 185, "unit": "%"}, {"measurement": "Gel-Time % increase", "setting": "[3]; curing agent TETA", "result": 450, "unit": "%"}]}]}
